Measurements from publication PMC8072931, “Thermodynamic Evaluation of the Interactions between Anticancer Pt(II) Complexes and Model Proteins” (Molecules, 2021).

Key:
[1] = biological target: T1, hen egg-white lysozyme (HEWL) (Gallus gallus, UniProt P00698); experiment: UV-Vis absorbance titration (binding constant K), […]; DSC; ESI-MS; conditions: read-out: K (M^-1) ^1
T1 construct: gene LYZ

[2] = biological target: T1, hen egg-white lysozyme (HEWL); experiment: UV-Vis absorbance titration (binding constant K), […]; DSC (no adduct seen in ESI-MS); conditions: read-out: K (M^-1) ^1

T1 sequence (P00698 19-147): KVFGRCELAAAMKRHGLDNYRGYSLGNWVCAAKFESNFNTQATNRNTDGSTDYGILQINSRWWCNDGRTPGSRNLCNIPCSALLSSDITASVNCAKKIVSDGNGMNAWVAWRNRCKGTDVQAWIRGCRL

Row | SMILES | Kd [1] [µM] | Kd [2] [µM]
1 | O=S(=O)(O)C(F)(F)F.[Cl][Pt-2]12[n+]3ccccc3-c3cc(-c4ccccc4)cc([n+]31)-c1cccc[n+]12 [compound 1, [PtCl(4′-phenyl-2,2′:6′,2″-terpyridine)](CF3SO3)] | 58.8 | 
2 | O=S(=O)(O)C(F)(F)F.[I][Pt-2]12[n+]3ccccc3-c3cc(-c4ccccc4)cc([n+]31)-c1cccc[n+]12 [compound 2, [PtI(4′-phenyl-2,2′:6′,2″-terpyridine)](CF3SO3)] |  | 83.3
